Measurements: patent US9783527B2, “Indazole ureas and method of use” (AbbVie Inc., priority 2014, dated 2017)

Columns and labels:
[1] = tested on: MIA-induced osteoarthritic pain in rats; experiment: Osteoarthritic (OA) pain induced by sodium monoiodoacetate (MIA), hind limb grip force; assay type: in vivo, rat; conditions: male Sprague Dawley rats, grip force 20 days after MIA injection
[2] = tested on: spinal nerve ligation-induced neuropathic pain in rats; experiment: Rat spinal nerve ligation (SNL) model of neuropathic pain, von Frey paw withdrawal threshold; assay type: in vivo; conditions: SNL dose 100 mg/kg; male Sprague Dawley rats, mechanical sensitivity (von Frey)
From the text: Rat Spinal Nerve Ligation (SNL) Model of Neuropathic Pain.
A model of spinal nerve ligation-induced (SNL model) neuropathic pain as originally described by Kim and Chung (Kim, S. H. and J. M. Chung, 1992, Pain 50, 355) was used to test a compound of the present application. The male Sprague Dawley rats (Charles River Laboratories, Wilmington, Mass.), weighing 150-175 g at the time of surgery, were placed under isoflurane anesthesia and a 1.5 cm incision was made dorsal to the lumbosacral plexus. The paraspinal muscles (left side) were separated from the spinous processes, the left L5 and L6 spinal nerves isolated, and tightly ligated with 5-0 silk suture distal to the dorsal root ganglion. Care was taken to avoid ligating the L4 spinal nerve. Following spinal nerve ligation, a minimum of 7 days of recovery and no more than 3 weeks was allowed prior to the behavioral testing (mechanical sensitivity). Only rats with threshold scores ≦4.5 g were considered allodynic and utilized in pharmacological experiments.
Mechanical sensitivity was measured using calibrated von Frey filaments (Stoelting, Wood Dale, Ill.). Paw withdrawal threshold (PWT) was determined by using the Dixon's up-down method (Dixon, W. J., 1980, Ann. Rev. Pharmacol. Toxicol., 20, 441). Rats were placed into inverted individual plastic containers (20×12.5×20 cm) on top of a suspended wire mesh with a 1 cm^2 grid to provide access to the ventral side of the hind paws, and acclimated to the test chambers for 20 minutes. The von Frey filaments were presented perpendicularly to the plantar surface of the selected hind paw, and then held in this position for approximately 8 seconds with enough force to cause a slight bend in the filament. Positive responses included an abrupt withdrawal of the hind paw from the stimulus, or flinching behavior immediately following removal of the stimulus. A 50% withdrawal threshold was determined using an up-down procedure (Dixon, 1980). A percent maximal possible effect (% MPE) of testing compound was calculated according to the formula: (Log [compound-treated threshold]−Log [vehicle-treated threshold])/(Log [maximum threshold]−Log [vehicle-treated threshold])×100%, where the maximum threshold was equal to 15 g.
The animals were housed in Association for Assessment and Accreditation of Laboratory Animal Care (AAALAC) approved facilities at AbbVie Inc. in a temperature-regulated environment under a controlled 12-hour light-dark cycle, with lights on at 6:00 a.m. Food and water were available ad libitum at all times except during testing. All testing was done following procedures outlined in protocols approved by AbbVie Inc.s' Institutional Animal Care and Use Committee.

With `Cc1noc(C(C)N2CCN(c3cccc4c3cnn4-c3ccccc3F)C2=O)n1` (racemic) [Example 46, 1-[1-(2-fluorophenyl)-1H-indazol-4-yl]-3-[1-(3-methyl-1,2,4-oxadiazol-5-yl)ethyl]imidazolidin-2-one] the “OA MPE (%)” value ([1]; OA dose 30 mg/kg) was 69% and the “SNL MPE (%)” value [2] was 59%.
For `C[C@H]1CCCN1C(=O)CN1CCN(c2cccc3c2cnn3-c2ccccc2F)C1=O` [Example 15, 1-[1-(2-fluorophenyl)-1H-indazol-4-yl]-3-{2-[(2S)-2-methylpyrrolidin-1-yl]-2-oxoethyl}imidazolidin-2-one], the “OA MPE (%)” value ([1]; OA dose 30 mg/kg) was 68% and the “SNL MPE (%)” value [2] was 74%.
`Cc1noc(C)c1CN1CCN(c2cccc3c2cnn3-c2ccccc2F)C1=O` [Example 27, 1-[(3,5-dimethyl-1,2-oxazol-4-yl)methyl]-3-[1-(2-fluorophenyl)-1H-indazol-4-yl]imidazolidin-2-one] was tested, and the “OA MPE (%)” value ([1]; OA dose 10 mg/kg) was 57% and the “SNL MPE (%)” value [2] was 63%.
For `O=C(CN1CCN(c2cccc3c2cnn3-c2ccccc2F)C1=O)N[C@@H]1CCOC1` [Example 55, 2-{3-[1-(2-fluorophenyl)-1H-indazol-4-yl]-2-oxoimidazolidin-1-yl}-N-[(3R)-tetrahydrofuran-3-yl]acetamide], the “OA MPE (%)” value ([1]; OA dose 30 mg/kg) was 66% and the “SNL MPE (%)” value [2] was 91%.
